Where two headings read alike, the source gives them in different places.
System: rabbit isolated gastric glands
Experiment: aminopyrine accumulation in rabbit isolated gastric glands (anti-secretory activity, H+/K+ ATPase inhibitors)
Assay type: cell-based
Details: 10^-4 M, % inhibition of the maximum response to the secretagogue; for inhibition at 100 µM: Oryctolagus cuniculus
Method: Compounds of formula I were tested for anti-secretory activity by their ability to inhibit the highly specific proton transporting enzyme H^+ /K^+ ATPase.
Potential H^+ /K^+ ATPase inhibitors were evaluated by a technique involving the measurements of aminopyrine accumulation in rabbit isolated gastric glands. Aminopyrine accumulates in acid-secreting cells; therefore, uptake of aminopyrine is increased by secretagogues and an inhibitor of acid secretion will reduce the response to one or more secretagogues depending upon its site of action. […] The following test procedure is used:
Rabbit gastric glands are isolated from gastric mucosa from the corpus region of the stomach by a method based on one described by Berglindh T., Obrink, K. J., Acta Physiol. Scand.
Results are expressed as the % inhibition of the maximum response to the secretagogue induced by the test compound. An inhibitor of H^+ /K^+ ATPase would be expected to reduce the response to both secretagogues.

[1] = 14C-aminopyrine uptake stimulated by DBcAMP, read-out: % Inhibition to stimulation by DBcAMP
[2] = 14C-aminopyrine uptake stimulated by high K+, read-out: % Inhibition to stimulation by K+

CCc1ccc(-c2cn3c(nc4ccccc43)s2)nc1 [2-(2-(5-Ethylpyridyl))thiazolo[3,2-a]-benzaimidazole]
inhibition at 100 µM [1]: 56% | inhibition at 100 µM [2]: 142%

c1ccc(-c2cccc(-c3cn4c(nc5ccccc54)s3)n2)cc1 [2-[2-(6-Phenylpyridyl)]thiazolo[3,2-a]benzimidazole]
inhibition at 100 µM [1]: 22% | inhibition at 100 µM [2]: 381%

6-Ethoxy-2-(2-pyridyl)thiazolo[3,2-a]-benzimidazole and 7-ethoxy-2-(2-pyridyl)thiazolo[3,2-a]benzimidazole
% Inhibition to stimulation by DBcAMP (14C-aminopyrine uptake stimulated by DBcAMP): 68% | % Inhibition to stimulation by K+ (14C-aminopyrine uptake stimulated by high K+): 162%
